Test results as given in the NIST ThermoML archive (doi:10.1016/j.fluid.2008.07.006).
± gives the expanded uncertainty stated by the source.

Columns and labels:
[1] = 101.33 kPa, Liquid
[2] = xn = mol fraction of the nth substance listed; conditions: 101 kPa, Fluid (supercritical or subcritical phases)
[3] = cn = amount concentration of the nth substance listed, in mol/dm3; conditions: 101 kPa, Liquid, Direct current cell with electrodes

CCn1cc[n+](C)c1.COCCOCCOS(=O)(=O)[O-] [1-ethyl-3-methylimidazolium 2-(2-methoxyethoxy) ethylsulfate]
[1]
Conditions	mass density [kg/m3]
303.2 K	1233.4 ± 3
308.2 K	1230 ± 2.9
313.2 K	1226.6 ± 2.9
318.2 K	1223.3 ± 2.9
323.2 K	1219.9 ± 2.9

CCn1cc[n+](C)c1.COCCOCCOS(=O)(=O)[O-] [1-ethyl-3-methylimidazolium 2-(2-methoxyethoxy) ethylsulfate] + O
Conditions	binary diffusion coefficient, 303.2 K [m2/s]	binary diffusion coefficient, 308.2 K [m2/s]	binary diffusion coefficient, 313.2 K [m2/s]	binary diffusion coefficient, 318.2 K [m2/s]	binary diffusion coefficient, 323.2 K [m2/s]	molar conductivity, 303.2 K [S·m2/mol]	molar conductivity, 308.2 K [S·m2/mol]	molar conductivity, 313.2 K [S·m2/mol]	molar conductivity, 318.2 K [S·m2/mol]	molar conductivity, 323.2 K [S·m2/mol]
[2], x2 = 0	9.95e-10	1.06e-09	1.27e-09	1.32e-09	1.51e-09	–	–	–	–	–
[3], c1 = 9e-10	–	–	–	–	–	0.0074 ± 0.0004	0.0081 ± 0.0005	0.009 ± 0.0005	0.0098 ± 0.0006	0.0107 ± 0.0006
[3], c1 = 3.9e-09	–	–	–	–	–	0.0067 ± 0.0004	0.0075 ± 0.0005	0.0082 ± 0.0005	0.0091 ± 0.0005	0.0097 ± 0.0006
[3], c1 = 1.06e-08	–	–	–	–	–	0.0062 ± 0.0004	0.007 ± 0.0004	0.0077 ± 0.0005	0.0084 ± 0.0005	0.0091 ± 0.0005
[3], c1 = 1.82e-08	–	–	–	–	–	0.006 ± 0.0004	0.0067 ± 0.0004	0.0074 ± 0.0004	0.0081 ± 0.0005	0.0088 ± 0.0005
[3], c1 = 2.57e-08	–	–	–	–	–	0.0059 ± 0.0004	0.0065 ± 0.0004	0.0072 ± 0.0004	0.0076 ± 0.0005	0.0083 ± 0.0005

CCn1cc[n+](C)c1.N#CN=C=[N-] [1-ethyl-3-methylimidazolium dicyanamide]
[1]
Conditions	mass density [kg/m3]
303.2 K	1105.8 ± 0.6
308.2 K	1102.6 ± 0.6
313.2 K	1099.4 ± 0.6
318.2 K	1096.2 ± 0.6
323.2 K	1093 ± 0.6

CCn1cc[n+](C)c1.N#CN=C=[N-] [1-ethyl-3-methylimidazolium dicyanamide] + O
Conditions	binary diffusion coefficient, 303.2 K [m2/s]	binary diffusion coefficient, 308.2 K [m2/s]	binary diffusion coefficient, 313.2 K [m2/s]	binary diffusion coefficient, 318.2 K [m2/s]	binary diffusion coefficient, 323.2 K [m2/s]	molar conductivity, 303.2 K [S·m2/mol]	molar conductivity, 308.2 K [S·m2/mol]	molar conductivity, 313.2 K [S·m2/mol]	molar conductivity, 318.2 K [S·m2/mol]	molar conductivity, 323.2 K [S·m2/mol]
[2], x1 = 0	1.25e-09	1.41e-09	1.54e-09	1.71e-09	1.85e-09	–	–	–	–	–
[3], c1 = 1.2e-09	–	–	–	–	–	0.0095 ± 0.0004	0.0103 ± 0.0004	0.011 ± 0.0004	0.0123 ± 0.0005	0.0133 ± 0.0005
[3], c1 = 6.6e-09	–	–	–	–	–	0.009 ± 0.0004	0.0098 ± 0.0004	0.0108 ± 0.0004	0.0118 ± 0.0005	0.0128 ± 0.0005
[3], c1 = 1.19e-08	–	–	–	–	–	0.0087 ± 0.0004	0.0095 ± 0.0004	0.0105 ± 0.0004	0.0113 ± 0.0005	0.0125 ± 0.0005
[3], c1 = 2.28e-08	–	–	–	–	–	0.0083 ± 0.0003	0.0092 ± 0.0004	0.01 ± 0.0004	0.0109 ± 0.0004	0.0119 ± 0.0005
[3], c1 = 4.15e-08	–	–	–	–	–	0.0079 ± 0.0003	0.0088 ± 0.0004	0.0095 ± 0.0004	0.0103 ± 0.0004	0.0114 ± 0.0005

CCOS(=O)(=O)[O-].CCn1cc[n+](C)c1 [1-ethyl-3-methylimidazolium ethyl sulfate]
[1]
Conditions	mass density [kg/m3]
303.2 K	1232.7 ± 1.7
308.2 K	1229.4 ± 1.7
313.2 K	1226.2 ± 1.6
318.2 K	1222.9 ± 1.6
323.2 K	1219.7 ± 1.6

CCOS(=O)(=O)[O-].CCn1cc[n+](C)c1 [1-ethyl-3-methylimidazolium ethyl sulfate] + O
Conditions	binary diffusion coefficient, 303.2 K [m2/s]	binary diffusion coefficient, 308.2 K [m2/s]	binary diffusion coefficient, 313.2 K [m2/s]	binary diffusion coefficient, 318.2 K [m2/s]	binary diffusion coefficient, 323.2 K [m2/s]	molar conductivity, 303.2 K [S·m2/mol]	molar conductivity, 308.2 K [S·m2/mol]	molar conductivity, 313.2 K [S·m2/mol]	molar conductivity, 318.2 K [S·m2/mol]	molar conductivity, 323.2 K [S·m2/mol]
[2], x1 = 0	1.04e-09	1.19e-09	1.4e-09	1.5e-09	1.64e-09	–	–	–	–	–
[3], c1 = 1.6e-09	–	–	–	–	–	0.008 ± 0.0003	0.0089 ± 0.0004	0.0097 ± 0.0004	0.0106 ± 0.0004	0.0116 ± 0.0005
[3], c1 = 4.6e-09	–	–	–	–	–	0.0076 ± 0.0003	0.0084 ± 0.0003	0.0092 ± 0.0004	0.0101 ± 0.0004	0.011 ± 0.0004
[3], c1 = 8.6e-09	–	–	–	–	–	0.0074 ± 0.0003	0.0081 ± 0.0003	0.0089 ± 0.0004	0.0097 ± 0.0004	0.0106 ± 0.0004
[3], c1 = 1.72e-08	–	–	–	–	–	0.0071 ± 0.0003	0.0079 ± 0.0003	0.0086 ± 0.0003	0.0095 ± 0.0004	0.0102 ± 0.0004
[3], c1 = 3.58e-08	–	–	–	–	–	0.0065 ± 0.0003	0.0073 ± 0.0003	0.0082 ± 0.0003	0.0091 ± 0.0004	0.0098 ± 0.0004
